Like-named read-outs stand apart in the source and are kept apart here.
Legend:
[1] = system: Keratinocytes of newborn mice; experiment: antiproliferative test: 3H-thymidine incorporation in DNA of keratinocytes; assay type: cell-based, mouse (neonatal NMRI mice); conditions: mouse keratinocytes, 24 hours with test substance in serum-free medium at 32.5° C., 4 hours 3H-methylthymidine, read-out: IC50 of inhibition of 3H-thymidine incorporation in DNA
Experimental: Keratinocytes of newborn mice are prepared and cultivated in a modification of the method of Yuspa, S. and Harris, C.
Neonatal NMRI mice of both sexes are killed by decapitation, the skin is removed, washed in an antibiotic-antimycotic solution and, with the dermal side facing down, incubated overnight at 4° C. in dispase II solution (1.2 U/ml in tissue culture medium M199 +25 mmol/l HEPES+15% fetal calf serum (FCS)+50 U/ml of penicillin/streptomycin (P/S) (preparation medium, PM). The epidermis is removed and a single-cell suspension is produced by trypsinization. After centrifuging, the cell sediment is resuspended, the number of living, small, round cells is determined after trypan blue staining and the cells are sown in a density of 4×10^5 cells/cm^2 in Primaria 24-hole plates in tissue culture medium (M199+15% FCS+50 U/ml of P/S). […] Then, 0.4 microcuries/50 microliters of ^3 H-methylthymidine (40 Ci/mmol) is added. After 4 hours, the medium is suctioned off and the reaction is ended by adding 500 microliters of ice-cold 10% trichloroacetic acid (TCA). The cells are washed with TCA and PBS, lysed by incubation in a proteinase K-solution (10 mmol/l of tris-HCl, 10 mmol/l of EDTA, 10 mmol/l of NaCl, 0.2% triton-X 100, pH 8.0, 50 micrograms/ml of […]) and the lysate is clarified by centrifuging. In the supernatant fluid, the radioactivity is determined by scintillation photometry and, after specific staining of the DNA with diamidinophenylindole (DAPI), the DNA concentration is determined by fluorescence photometry.

[2] = system: HL 60 cells (human leukemia cells, promyelocytic cell line); experiment: HL 60 differentiation induction into macrophages (NBT reduction to formazan); assay type: cell-based; conditions: for EC50: Homo sapiens, HL-60, 96 hours incubation, NBT-TPA, formazan at 650 nm, read-out: ED50 of differentiation induction of HL 60 cells into macrophages (formazan formed); for differentiation-stimulating effect compared with calcitriol: HL 60 cells, versus calcitriol
Experimental: To quantify the differentiation-stimulating effect of calcitriol analogs, the test indicated below was performed:
HL 60 cells are cultivated in tissue culture medium (RPM1--10% fetal calf serum) at 37° C. in an atmosphere of 5% CO2 in air.
The test substances are-dissolved in ethanol and diluted with tissue culture medium without phenol red to the desired concentration. The dilution stages are mixed with the cell suspension in a ratio of 1:10 and 100 microliters each of this cell suspension mixed with substance is pipetted into an indentation of a 96-hole plate. As a control, a cell suspension is mixed analogously with the solvent.
After incubation for 96 hours at 37° C. in 5% CO2 in air, 100 microliters of an NBT-TPA solution (nitro blue tetrazolium (NBT), final concentration in the batch 1 mg/ml, tetradecanoyl-phorbol myristate-13-acetate (TPA), final concentration in the batch 2×10^-7 mol/l) is pipetted into each indentation of the 96-hole plate into the cell suspension.
By incubation for 2 hours at 37° C. and 5% CO2 in air, the NBT is reduced to insoluble formazan because of the intracellular oxygen radical release, stimulated by TPA, in the cells differentiated into macrophages.
To end the reaction, the indentations of the 96-hole plate are drained and the adhering cells are fixed by adding methanol and dried after fixation.
To dissolve the intracellular formazan crystals formed, 100 microliters of potassium hydroxide (2 val/l) and 100 microliters of dimethyl sulfoxide are pipetted into each indentation and are exposed to ultrasonic waves for 1 minute. The concentration of formazan is measured by spectrophotometry at 650 nm.
The concentration of formazan formed is regarded as a measurement for the differentiation induction of the HL 60 cells into macrophages. The relative effectiveness of the test substance results from the quotient of ED50 test substance/ED50 calcitriol.

Row | SMILES | IC50 [1] [nM] | IC50 ([1]; Keratinocyte) [nM] | EC50 [2] [nM] | differentiation-stimulating effect compared with calcitriol [2]
1 | C=C1/C(=C\C=C2/CCC[C@]3(C)[C@@H]([C@H](C)C/C=C/C(O)CC(C)C)CC[C@@H]23)C[C@@H](O)C[C@@H]1O (single isomer, unassigned) [compound A] | 10 |  |  | 
2 | C=C1/C(=C\C=C2/CCC[C@]3(C)[C@@H]([C@H](C)C/C=C/C(O)CC(C)C)CC[C@@H]23)C[C@@H](O)C[C@@H]1O (single isomer, unassigned) [compound B] | 3.2 |  |  | 
3 | C=C1/C(=C\C=C2/CCC[C@]3(C)[C@@H]([C@H](C)CCCC(C)(C)O)CC[C@@H]23)C[C@@H](O)C[C@@H]1O [calcitriol, lalpha,25-dihydroxycholecalciferol, reference compound] |  | 2 | 1.8 | 
4 | C=C1/C(=C\C=C2/CCC[C@]3(C)[C@@H]([C@H](C)C/C=C/[C@H](O)CC4CC4)CC[C@@H]23)C[C@@H](O)C[C@@H]1O [compound C, 26,27-cyclo-24a,24b-dihomo-9,10-secocholesta-5Z,7E,10(19),23E-tetraene-1(S),3(R),24a(R)-triol] |  |  | 2.2 | practically do not differ
5 | C=C1/C(=C\C=C2/CCC[C@]3(C)[C@@H]([C@H](C)C/C=C/[C@@H](O)CC4CC4)CC[C@@H]23)C[C@@H](O)C[C@@H]1O [compound D, 26,27-cyclo-24a,24b-dihomo-9,10-secocholesta-5Z,7E,10(19),23E-tetraene-1(S),3(R),24a(S)-triol] |  |  | 2.5 | practically do not differ

Source: patent US5532228A, “Side-chain homologous vitamin D derivatives, process for their production, pharmaceutical preparations containing these derivatives and their use as pharmaceutical agents” (Schering Aktiengesellschaft, priority 1990, dated 1996)
